The results in this text go back to patent US9856216B2, “Compounds as TNIK, IKKε and TBK1 inhibitors and pharmaceutical composition comprising same” (GREEN CROSS CORPORATION, priority 2015, dated 2018).

In one assay the target is T1, TNIK (Homo sapiens, UniProt Q9UKE5).
T1 construct: purchased Promega V4158
T1 sequence (Q9UKE5 1-367 limits assumed): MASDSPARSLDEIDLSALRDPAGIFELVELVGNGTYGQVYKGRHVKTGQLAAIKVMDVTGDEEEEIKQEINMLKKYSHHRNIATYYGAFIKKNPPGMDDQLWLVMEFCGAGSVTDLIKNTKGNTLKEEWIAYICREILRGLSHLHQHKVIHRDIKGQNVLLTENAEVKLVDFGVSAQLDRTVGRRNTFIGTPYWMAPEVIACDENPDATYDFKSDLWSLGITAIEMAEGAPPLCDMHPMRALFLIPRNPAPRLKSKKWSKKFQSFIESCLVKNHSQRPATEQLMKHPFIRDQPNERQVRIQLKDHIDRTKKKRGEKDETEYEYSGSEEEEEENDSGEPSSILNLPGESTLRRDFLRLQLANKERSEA
As to the kind of experiment: ADP-Glo Kinase Assay, inhibition activity on TNIK. The assay is classed as biochemical.
Details: not given
As to the method: The inhibition activities on TNIK, IKKε and TBK1 were measured by a luminometer, TNIK/IKKε/TBK1 Kinase Enzyme System (Promega, Ca# V4158; Invitrogen, PR8031B, Promega, Ca# V3991) and ADP-Glo Kinase Assay using ADP-Glo™ Kinase Analysis Kit (Promega, Ca# V9101) and a kinase reaction buffer [40 mM Tris(pH 7.5), 20 mM MgCl2, 0.1 mg/mL BSA] in accordance with the manufacturer's protocol.
In the case of `CN(C)CCCNc1ccc(C(=O)Nc2ccc(-c3cccc(F)c3F)c3c2C(=O)NC3)cc1` [Example 368, N-(7-(2,3-difluorophenyl)-3-oxoisoindolin-4-yl)-4-((3-(dimethylamino)propyl)amino)benzamide], the “TNIK (μM)” value is reported as “Insoluble”. The same measure, in the same setting: as for `Nc1ccc(-c2ccc(F)cc2)c2c1C(=O)NC2` [Example 61, 7-Amino-4-(4-fluorophenyl)isoindolin-1-one], the entry is “Insoluble”. For the molecule `COc1ccc(C(=O)Nc2ccc(-c3ccccc3)c3c2C(=O)NC3)cc1OC` [Example 102, 3,4-Dimethoxy-N-(3-oxo-7-phenylisoindolin-4-yl)benzamide], the “TNIK (μM)” value was “Insoluble”.

The assay is the same for the next values; noted with them: read-out: TNIK.
For `O=C(Nc1ccc(Nc2cccc(Cl)c2)c2c1C(=O)NC2)c1ccc(NCCN2CCCC2)cc1` [Example 455, N-(7-((3-chlorophenyl)amino)-3-oxoisoindolin-4-yl)-4-((2-(pyrrolidin-1-yl)ethyl)amino)benzamide], the IC50 came out at 200 nM. Regarding `CN(C)CCNc1ccc(C(=O)Nc2ccc(-c3cccc(F)c3F)c3c2C(=O)NC3)cc1` [Example 367, N-(7-(2,3-difluorophenyl)-3-oxoisoindolin-4-yl)-4-((2-(dimethylamino)ethyl)amino)benzamide], the IC50 came out at 280 nM.

As for `O=C(Nc1ccc(-c2ccccc2)c2c1C(=O)NC2)c1ccc(NCCCCO)cc1` [Example 383, 4-((4-Hydroxybutyl)amino)-N-(3-oxo-7-phenylisoindolin-4-yl) benzamide], the IC50 was 380 nM.

Take `CN1CCN(CCNc2ccc(C(=O)Nc3ccc(Nc4ccccc4)c4c3C(=O)NC4)cc2)CC1` [Example 443, 4-((2-(4-Methylpiperazin-1-yl)ethyl)amino)-N-(3-oxo-7-(phenylamino)isoindolin-4-yl)benzamide]: the IC50 is 120 nM. The same measure, in the same setting: as for `O=C(Nc1ccc(Nc2ccccc2)c2c1C(=O)NC2)c1ccc(NCCN2CCOCC2)cc1` [Example 442, 4-((2-Morpholinoethyl)amino)-N-(3-oxo-7-(phenylamino)isoindolin-4-yl)benzamide], the figure is 150 nM; as for `Cn1ncnc1-c1ccc(NC(=O)c2ccccc2)c2c1CNC2=O` [Example 59, N-(7-(1-methyl-1H-1,2,4-triazol-5-yl)-3-oxoisoindolin-4-yl) benzamide], > 20000 nM; as for `CCCc1ccc(NC(=O)c2ccc(F)cc2)c2c1CNC2=O` [Example 36, 4-fluoro-N-(3-oxo-7-propylisoindolin-4-yl)benzamide], > 20000 nM.

For the molecule `COc1cccc(Nc2ccc(NC(=O)c3ccc(F)cc3)c3c2CNC3=O)c1OC` [Example 422, N-(7-((2,3-dimethoxyphenyl)amino)-3-oxoisoindolin-4-yl)-4-fluorobenzamide], the IC50 was 1180 nM. For `CS(=O)(=O)c1cccc(-c2ccc(NC(=O)c3ccccc3)c3c2CNC3=O)c1` [Example 168, N-(7-(3-(methylsulfonyl)phenyl)-3-oxoisoindolin-4-yl) benzamide], the IC50 is > 20000 nM. On the same count and under the same terms, the result for `O=C1NCc2c(-c3ccccc3)ccc(NCCN3CCCCC3)c21` [Example 259, 4-Phenyl-7-((2-(piperidin-1-yl)ethyl)amino)isoindolin-1-one] reads > 20000 nM.

Take `Cc1cccc(Nc2ccc(NC(=O)c3ccc(NCCN4CCCCC4)cc3)c3c2CNC3=O)c1` [Example 450, N-(3-oxo-7-(m-tolylamino)isoindolin-4-yl)-4-((2-(piperidin-1-yl)ethyl)amino)benzamide]: the IC50 was found to be 580 nM. On the same count and under the same terms, as for `CS(=O)(=O)Nc1ccc(-c2ccccc2)c2c1C(=O)NC2` [Example 250, N-(3-oxo-7-phenylisoindolin-4-yl)methanesulfonamide], the figure is 21000 nM; as for `COc1ccccc1Nc1ccc(NC(=O)c2ccc(NCCCN3CCCCC3)cc2)c2c1CNC2=O` [Example 478, N-(7-((2-methoxyphenyl)amino)-3-oxoisoindolin-4-yl)-4-((3-(piperidin-1-yl)propyl)amino)benzamide], 490 nM. On the same count and under the same terms, as for `O=C(Nc1ccc(Sc2ccccc2)c2c1C(=O)NC2)c1ccccc1` [Example 407, N-(3-oxo-7-(phenylthio)isoindolin-4-yl)benzamide], the figure is 2300 nM; as for `O=C(Nc1ccc(-c2ccccc2)c2c1C(=O)NC2)c1ccc(F)cc1F` [Example 91, 2,4-Difluoro-N-(3-oxo-7-phenylisoindolin-4-yl)benzamide], > 20000 nM. As to `O=C(Nc1ccc(-c2ccccc2)c2c1C(=O)NC2)c1ccc(Cl)s1` [Example 170, 5-Chloro-N-(3-oxo-7-phenylisoindolin-4-yl)thiophene-2-carboxamide], the IC50 was determined as 3520 nM. Same read-out and setting: the result for `CN(C)CCCNc1ccc(C(=O)Nc2ccc(-c3ccco3)c3c2C(=O)NC3)cc1` [Example 335, 4-((3-(Dimethylamino)propyl)amino)-N-(7-(furan-2-yl)-3-oxoisoindolin-4-yl)benzamide] reads 430 nM; that for `CCNC(=O)Nc1ccc(-c2ccccc2)c2c1C(=O)NC2` [Example 236, 1-Ethyl-3-(3-oxo-7-phenylisoindolin-4-yl)urea], 580 nM; that for `O=C(Nc1ccc(-c2ccccc2)c2c1C(=O)NC2)Oc1ccccc1` [Example 248, Phenyl (3-oxo-7-phenylisoindolin-4-yl)carbamate], > 20000 nM. For `O=C(Nc1ccc(Nc2ccccc2)c2c1C(=O)NC2)c1ccc(NCCN2CCCCC2)cc1` [Example 439, N-(3-oxo-7-(phenylamino)isoindolin-4-yl)-4-((2-(piperidin-1-yl)ethyl)amino)benzamide], the IC50 was 150 nM.

In the case of `O=C1NCc2c(-c3ccccc3)ccc(NCCN3CCCC3)c21` [Example 262, 4-Phenyl-7-((2-(pyrrolidin-1-yl)ethyl)amino)isoindolin-1-one], the IC50 was > 20000 nM. With `N#Cc1ccc(NC(=O)Nc2ccc(-c3ccccc3)c3c2C(=O)NC3)cc1` [Example 228, 1-(4-Cyanophenyl)-3-(3-oxo-7-phenylisoindolin-4-yl)urea], the IC50 is > 20000 nM. In the case of `O=C(Nc1ccc(Nc2cc(C(F)(F)F)cc(C(F)(F)F)c2)c2c1C(=O)NC2)c1ccc(NCCN2CCCCC2)cc1` [Example 467, N-(7-((3,5-bis(trifluoromethyl)phenyl)amino)-3-oxoisoindolin-4-yl)-4-((2-(piperidin-1-yl)ethyl)amino)benzamide], the IC50 is > 20000 nM.

As to `O=C(Nc1ccc(-c2ccccc2OC(F)(F)F)c2c1C(=O)NC2)c1ccccc1` [Example 4, N-(3-oxo-7-(2-(trifluoromethoxy)phenyl)isoindolin-4-yl)benzamide], the IC50 came to 3000 nM. `CSc1cccc(NC(=O)Nc2ccc(-c3ccccc3)c3c2C(=O)NC3)c1` [Example 241, 1-(3-(Methylthio)phenyl)-3-(3-oxo-7-phenylisoindolin-4-yl) urea]: the IC50 worked out at 2700 nM. `O=C(Nc1ccc(Nc2ccccc2)c2c1C(=O)NC2)c1ccc(NCCCN2CCOCC2)cc1` [Example 461, 4-((3-Morpholinopropyl)amino)-N-(3-oxo-7-(phenylamino)isoindolin-4-yl)benzamide]: the IC50 amounted to 380 nM. Turning to `O=C(Nc1ccccc1)Nc1ccc(-c2ccccc2)c2c1C(=O)NC2` [Example 227, 1-(3-Oxo-7-phenylisoindolin-4-yl)-3-phenylurea], the IC50 was determined as 1200 nM. As to `CC(=O)NCCNc1ccc(C(=O)Nc2ccc(Nc3ccccc3)c3c2C(=O)NC3)cc1` [Example 485, 4-((2-Acetamidoethyl)amino)-N-(3-oxo-7-(phenylamino)isoindolin-4-yl)benzamide], the IC50 was 100 nM.
